Patent US6204293A, “Inhibitors of protein isoprenyl transferases” (University of Pittsburgh, priority 1998, dated 2001)
Counter-ions that a name gives are not always drawn.

Biological target: T1, Rat brain protein farnesyltransferase (Rattus norvegicus, UniProt Q02293+Q04631)
T1 construct: Rat brain protein farnesyltransferase activity is measured; from tissue; host or cells: rat brain
Experiment: % inhibition of farnesylation, scintillation proximity assay with biotin-K Ras B fragment
Format: biochemical
Details: Table 1; 1 × 10^-5 M
From the text: The ability of the compounds of the invention to inhibit protein farnesyltransferase or protein geranylgeranyltransferase can be measured according to the method of Moores, et al., J. Biol. Chem. 266: 14603 (1991) or the method of Vogt, et al., J. Biol. Chem. 270:660-664 (1995). In addition, procedures for determination of the inhibition of farnesylation of the oncogene protein Ras are described by Goldstein, et al., J. Biol. Chem., 266:15575-15578 (1991) and by Singh in U.S. Pat. No. 5,245,061.
In addition, in vitro inhibition of protein farnesyltransferase may be measured by the following procedure. Rat brain protein farnesyltransferase activity is measured using an Amersham Life Science commercial scintillation proximity assay kit and substituting a biotin-K Ras B fragment (biotin-[…]CO2 H), 0.1 mM final concentration, for the biotin-lamin substrate provided by Amersham. The enzyme is purified according to Reiss, Y., et al., Cell, 62: 81-88 (1990), utilizing steps one through three.
The % inhibition of protein farnesyltransferase was determined for representative compounds of the invention.

T1 sequence (Q02293 whole entry, one chain of several): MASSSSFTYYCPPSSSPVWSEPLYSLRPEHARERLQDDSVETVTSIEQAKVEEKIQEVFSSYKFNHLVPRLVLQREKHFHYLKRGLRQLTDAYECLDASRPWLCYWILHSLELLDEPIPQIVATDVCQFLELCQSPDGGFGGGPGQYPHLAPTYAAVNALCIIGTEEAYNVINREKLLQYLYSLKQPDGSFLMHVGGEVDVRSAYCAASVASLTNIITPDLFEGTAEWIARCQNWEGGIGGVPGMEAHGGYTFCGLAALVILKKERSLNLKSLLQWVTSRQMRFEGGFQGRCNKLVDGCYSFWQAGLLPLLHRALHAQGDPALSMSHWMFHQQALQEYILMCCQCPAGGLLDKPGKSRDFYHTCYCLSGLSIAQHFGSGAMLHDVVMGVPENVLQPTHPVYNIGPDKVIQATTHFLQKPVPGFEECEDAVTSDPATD

| Compound | % inhibition at 1 × 10^-5 M |
| --- | --- |
| CSCC[C@H](NC(=O)c1ccc(CNc2nccs2)cc1-c1ccccc1)C(=O)O [Example 374] | 61% |
| CSCC[C@H](NC(=O)c1ccc(CNCCCN2CCOCC2)cc1-c1ccccc1)C(=O)O [Example 377] | 71% |

Continued, values first:

| % inhibition at 1 × 10^-5 M | Compound |
| --- | --- |
| 86% | CSCC[C@H](NC(=O)c1ccc(CNc2cc[nH]n2)cc1-c1ccccc1)C(=O)O [Example 370] |
| 66% | CSCC[C@H](NC(=O)c1ccc(CNc2nnc(C)s2)cc1-c1ccccc1)C(=O)O [Example 371] |
| 69% | CSCC[C@H](NC(=O)c1ccc(CNc2cc(C)on2)cc1-c1ccccc1)C(=O)O [Example 372] |
| 76% | CSCC[C@H](NC(=O)c1ccc(CNc2cc(C)ns2)cc1-c1ccccc1)C(=O)O [Example 373] |
| 79% | CSCC[C@H](NC(=O)c1ccc(CNc2cc(C(C)(C)C)[nH]n2)cc1-c1ccccc1)C(=O)O [Example 381] |

Same assay, conditions: Table 2; 1 × 10^-6 M

| Compound | % inhibition at 1 × 10^-6 M |
| --- | --- |
| CSCC[C@H](NC(=O)c1ccc(CCc2ccccc2-c2ccccc2)cc1-c1ccccc1C)C(=O)[O-].[Li+] [Example 452] | 96% |
| CSCC[C@H](NC(=O)c1ccc(C=Cc2ccccc2Oc2ccccc2)cc1-c1ccccc1C)C(=O)[O-].[Li+] [Example 453] | 90% |
| Cc1ccccc1-c1cc(CCc2ccccc2Oc2ccccc2)ccc1C(=O)N[C@@H](CC[S+](C)[O-])C(=O)O (stereo partly shown) [Example 456] | 81% |
| CSCC[C@H](NC(=O)c1ccc(C=Cc2ccccc2Cc2ccccc2)cc1-c1ccccc1C)C(=O)[O-].[Li+] [Example 457] | 92% |
| CSCC[C@H](NC(=O)c1ccc(CCc2cccc3ccccc23)cc1-c1ccccc1C)C(=O)[O-].[Li+] [Example 467] | 97% |
| CSCC[C@H](NC(=O)c1ccc(CCCc2ccc3ccccc3c2)cc1-c1ccccc1C)C(=O)[O-].[Li+] [Example 470] | 95% |

Second part, the molecule after the results:

| % inhibition at 1 × 10^-6 M | Compound |
| --- | --- |
| 99% | CCSC[C@H](CC1CCCCC1)NCc1ccc(C(=O)N[C@@H](CCSC)C(=O)O)c(-c2ccccc2C)c1 [Example 403] |
| 95% | CSCC[C@H](NC(=O)c1ccc(CN(Cc2ccccc2)c2ccccc2)cc1-c1ccccc1C)C(=O)O [Example 406] |
| 88% | Cc1ccccc1-c1cc(CCc2cccc(Oc3ccccc3)c2)ccc1C(=O)N[C@@H](CC[S+](C)[O-])C(=O)O (stereo partly shown) [Example 460] |
| 91% | Cc1ccccc1-c1cc(CCc2ccc(Oc3ccccc3)cc2)ccc1C(=O)N[C@@H](CC[S+](C)[O-])C(=O)O (stereo partly shown) [Example 463] |
| 92% | CSCC[C@H](NC(=O)c1ccc(/C=C/c2ccc3ccccc3c2)cc1-c1ccccc1C)C(=O)O [Example 465] |
| 93% | CSCC[C@H](NC(=O)c1ccc(/C=C/c2cccc3ccccc23)cc1-c1ccccc1C)C(=O)O [Example 466] |
| 96% | CSCC[C@H](NC(=O)c1ccc(CCc2ccc3ccccc3c2)cc1-c1ccccc1C)C(=O)O [Example 468] |
| 92% | CSCC[C@H](NC(=O)c1ccc(C=CCc2ccccc2)cc1-c1ccccc1C)C(=O)O [Example 469] |

Same assay, conditions: Table 3; 1 × 10^-7 M

| Compound | % inhibition at 1 × 10^-7 M |
| --- | --- |
| CSCC[C@H](NC(=O)c1ccc(CCc2ccccc2Oc2ccccc2)cc1-c1ccccc1C)C(=O)[O-].[Li+] [Example 455] | 83% |
| CSCC[C@H](NC(=O)c1ccc(CCc2ccccc2Cc2ccccc2)cc1-c1ccccc1C)C(=O)O [Example 458] | 87% |
| CSCC[C@H](NC(=O)c1ccc(CCc2cccc(Oc3ccccc3)c2)cc1-c1ccccc1C)C(=O)[O-].[Li+] [Example 459] | 92% |
| CSCC[C@H](NC(=O)c1ccc(CCc2ccc(C3CCCCC3)cc2)cc1-c1ccccc1C)C(=O)[O-].[Li+] [Example 461] | 93% |
| CSCC[C@H](NC(=O)c1ccc(CCc2ccc(Oc3ccccc3)cc2)cc1-c1ccccc1C)C(=O)[O-].[Li+] [Example 462] | 91% |

Same assay, conditions: read-out: % inhibition at 1 × 10^-6 M; Table 2; 1 × 10^-6 M

| Compound | inhibition at 1 µM |
| --- | --- |
| CSCC[C@H](NC(=O)c1ccc(COCCC23CC4CC(CC(C4)C2)C3)cc1-c1ccccc1C)C(=O)O [Example 404, 4-[2-(1-adamantane)ethoxy]methyl-2(2-methylphenyl)benzoylmethionine lithium salt.] | 98% |
| CSCC[C@H](NC(=O)c1ccc(COCCCC2CCCCC2)cc1-c1ccccc1C)C(=O)O [Example 405, 4-(3-cyclohexylpropoxy)methyl-2-(2-methylphenyl)benzoylmethionine lithium salt.] | 98% |
| CSCC[C@H](NC(=O)c1ccc(COCc2ccc(CN(C)C)o2)cc1-c1ccccc1C)C(=O)O [Example 435, N-[4-(5-N,N-dimethylaminomethylfuran-2-ylmethoxymethyl)-2-(2-methylphenyl)benzoyl]methionine] | 96% |

Same assay, conditions: read-out: % inhibition at 1 × 10^-7 M

| Compound | inhibition at 0.1 µM |
| --- | --- |
| CSCC[C@H](NC(=O)c1ccc(COCc2ccc(Br)o2)cc1-c1ccccc1C)C(=O)O [Example 434, N-[4-(5-Bromofuran-2-ylmethoxymethyl)-2-(2-methylphenyl)benzoyl]methionine lithium salt] | 93% |
| CSCC[C@H](NC(=O)c1ccc(COCc2ccc(-c3cccc(F)c3)o2)cc1-c1ccccc1C)C(=O)O [Example 436, N-[4-(5-(3-fluorophenyl)furan-2-ylmethoxymethyl)-2-(2-methylphenyl)benzoyl]methionine lithium salt] | 89% |
| CSCC[C@H](NC(=O)c1ccc(COCc2ccc(-c3ccccc3F)o2)cc1-c1ccccc1C)C(=O)O [Example 437, N-[4-(5-(2-fluorophenyl)furan-2-ylmethoxymethyl)-2-(2-methylphenyl)benzoyl]methionine lithium salt] | 89% |
| CSCC[C@H](NC(=O)c1ccc(COCc2ccc(-c3ccccc3C(F)(F)F)o2)cc1-c1ccccc1C)C(=O)O [Example 438, N-[4-(5-(2-trifluoromethylphenyl)furan-2-ylmethoxymethyl)-2-(2-methylphenyl)benzoyl]methionine lithium salt] | 90% |
| CSCC[C@H](NC(=O)c1ccc(COCc2ccc(-c3cccc([N+](=O)[O-])c3)o2)cc1-c1ccccc1C)C(=O)O [Example 440, N-[4-(5-(3-nitrophenyl)furan-2-ylmethoxymethyl)-2-(2-methylphenyl)benzoyl]methionine lithium salt] | 92% |
| CSCC[C@H](NC(=O)c1ccc(COCc2ccc(-c3cccc(C(F)(F)F)c3)o2)cc1-c1ccccc1C)C(=O)O [Example 441, N-[4-(5-(3-trifluoromethylphenyl)furan-2-ylmethoxymethyl)-2-(2-methylphenyl)benzoyl]methionine lithium salt] | 91% |
| COc1cccc(-c2ccc(COCc3ccc(C(=O)N[C@@H](CCSC)C(=O)O)c(-c4ccccc4C)c3)o2)c1 [Example 442, N-[4-(5-(3-methoxyphenyl)furan-2-ylmethoxymethyl)-2-(2-methylphenyl)benzoyl]methionine lithium salt] | 88% |
| CSCC[C@H](NC(=O)c1ccc(COCc2ccc(-c3ccc(C(F)(F)F)cc3)o2)cc1-c1ccccc1C)C(=O)O [Example 445, N-[4-(5-(4-trifluoromethylphenyl)furan-2-ylmethoxymethyl)-2-(2-methylphenyl)benzoyl]methionine lithium salt] | 94% |
| COc1ccc(-c2ccc(COCc3ccc(C(=O)N[C@@H](CCSC)C(=O)O)c(-c4ccccc4C)c3)o2)cc1 [Example 446, N-[4-(5-(4-methoxyphenyl)furan-2-ylmethoxymethyl)-2-(2-methylphenyl)benzoyl]methionine lithium salt] | 91% |
| CSCC[C@H](NC(=O)c1ccc(COCc2ccc(-c3ccc(SC)cc3)o2)cc1-c1ccccc1C)C(=O)O [Example 447, N-[4-(5-(4-methylthiophenyl)furan-2-ylmethoxymethyl)-2-(2-methylphenyl)benzoyl]methionine lithium salt] | 91% |
| CSCC[C@H](NC(=O)c1ccc(COCc2ccc(-c3ccc(C=O)cc3)o2)cc1-c1ccccc1C)C(=O)O [Example 448, N-[4-(5-(4-formylphenyl)furan-2-ylmethoxymethyl)-2-(2-methylphenyl)benzoyl]methionine lithium salt] | 92% |
| CSCC[C@H](NC(=O)c1ccc(COCc2ccc(-c3ccc(C(C)=O)cc3)o2)cc1-c1ccccc1C)C(=O)O [Example 449, N-[4-(5-(4-acetylphenyl)furan-2-ylmethoxymethyl)-2-(2-methylphenyl)benzoyl]methionine lithium salt] | 91% |

Same assay, conditions: read-out: % inhibition at 1 × 10^-7 M; Table 3; 1 × 10^-7 M

| Compound | inhibition at 0.1 µM |
| --- | --- |
| CSCC[C@H](NC(=O)c1ccc(COCc2ccc(-c3ccc(Cl)cc3)o2)cc1-c1ccccc1C)C(=O)O [Example 443, N-[4-(5-(4-chlorophenyl)furan-2-ylmethoxmethyl)-2-(2-methylphenyl)benzoyl]methionine lithium salt] | 97% |
| CSCC[C@H](NC(=O)c1ccc(COCc2ccc(-c3ccc(F)c(Cl)c3)o2)cc1-c1ccccc1C)C(=O)O [Example 450, N-[4-(5-(3-chloro-4-fluorophenyl)furan-2-ylmethoxymethyl)-2-(2-methylphenyl)benzoyl]methionine lithium salt] | 96% |
